Reference: ChEMBL document CHEMBL5136994, “Conjugates of Porphyrinoid-Based Photosensitizers with Cytotoxic Drugs: Current Progress and Future Directions toward Selective Photodynamic Therapy” (J Med Chem, 2022)

What was measured:
[1] = test system: UMUC3; experiment: Photodynamic cytotoxicity against human UMUC3 cells assessed as cell growth inhibition upon 1 J/cm2 light irradiation; type: functional, cell-based; conditions: UMUC3, light or radiation study
[2] = test system: FaDu; experiment: Photodynamic cytotoxicity against human FaDu cells assessed as cell growth inhibition upon 1 J/cm2 light irradiation; type: functional, cell-based; conditions: light or radiation study
[3] = test system: HBL-100; experiment: Photodynamic cytotoxicity against human HBL-100 cells assessed as cell growth inhibition incubated for 24 hrs followed by medium replacement without compound upon 1 J/cm2 light irradiation and measured after 24 hrs by MTT assay; type: functional, cell-based
[4] = test system: HBL-100; experiment: Photodynamic cytotoxicity against human HBL-100 cells assessed as cell growth inhibition incubated for 24 hrs by MTT assay; type: functional, cell-based
[5] = test system: NCI-H460; experiment: Photodynamic cytotoxicity against human H460M2 cells assessed as cell growth inhibition incubated for 24 hrs followed by medium replacement without compound upon 1 J/cm2 light irradiation and measured after 24 hrs by MTT assay; type: functional, cell-based
[6] = test system: HeLa; experiment: Cytotoxicity against human HeLa cells assessed as cell growth inhibition incubated for 24 hrs by MTT assay; type: functional, cell-based
[7] = test system: NCI-H460; experiment: Cytotoxicity against human H460M2 cells assessed as cell growth inhibition incubated for 24 hrs by MTT assay; type: functional, cell-based
[8] = test system: HeLa; experiment: Photodynamic cytotoxicity against human HeLa cells assessed as cell growth inhibition incubated for 24 hrs followed by medium replacement without compound upon 1 J/cm2 light irradiation and measured after 24 hrs by MTT assay; type: functional, cell-based
[9] = test system: UMUC3; experiment: Photodynamic cytotoxicity against human UMUC3 cells assessed as cell growth inhibition upon light irradiation; type: functional, cell-based; conditions: UMUC3, light or radiation study
[10] = test system: FaDu; experiment: Photodynamic cytotoxicity against human FaDu cells assessed as cell growth inhibition upon light irradiation; type: functional, cell-based; conditions: light or radiation study
[11] = test system: A549; experiment: Photodynamic cytotoxicity against human A549 cells assessed as cell growth inhibition upon light irradiation by WST assay; type: functional, cell-based
[12] = test system: A549; experiment: Cytotoxicity against human A549 cells assessed as cell growth inhibition by WST assay; type: functional, cell-based
[13] = test system: HeLa; experiment: Cytotoxicity against human HeLa cells assessed as cell growth inhibition incubated for […] followed by fresh medium replacement without compound and further incubated for 44 hrs under dark condition by resazurin based fluorimetry; type: functional
[14] = test system: HeLa; experiment: Photodynamic cytotoxicity against human HeLa cells assessed as cell growth inhibition incubated for 4 hrs followed by fresh medium replacement without compound upon 6.95 J/cm2 light irradiation for 15 mins and further incubated for 44 hrs by resazurin based fluorimetry; type: functional; conditions: light or radiation study
[15] = test system: A549; experiment: Photodynamic cytotoxicity against human A549 cells assessed as cell growth inhibition upon light irradiation; type: functional, cell-based; conditions: A549, light or radiation study
[16] = test system: A549; experiment: Cytotoxicity against human A549 cells assessed as cell growth inhibition; type: functional, cell-based
[17] = Homo sapiens, A549, light or radiation study

CCc1c(C)c2cc3nc(cc4nc(c5c6[nH]c(cc1[nH]2)c(C)c6C(=O)C5)[C@@H](CCC(=O)OC)[C@@H]4C)C(C)=C3C(C)OCc1cccc(C#Cc2cccc(Nc3ncnc4cc(OCCOC)c(OCCOC)cc34)c2)c1 (stereo partly drawn)
IC50 [1]: 59 nM
IC50 [2]: 35 nM

C[n+]1ccc(-c2c3nc(c(-c4cc[n+](C)cc4)c4ccc([nH]4)c(-c4cc[n+](C)cc4)c4nc(c(-c5ccc(C(=O)NCCOCCOCCNC(=O)CN6CCNCCNCC6)cc5)c5ccc2[nH]5)C=C4)C=C3)cc1
IC50 [3]: > 100000 nM
IC50 [4]: > 100000 nM
IC50 [5]: > 100000 nM
IC50 [6]: > 100000 nM
IC50 [7]: > 100000 nM
IC50 [8]: > 100000 nM

CCc1c(C)c2cc3nc(cc4nc(c5c6[nH]c(cc1[nH]2)c(C)c6C(=O)C5)[C@@H](CCC(=O)OC)[C@@H]4C)C(C)=C3C(C)OCc1ccc(C#Cc2cccc(Nc3ncnc4cc(OCCOC)c(OCCOC)cc34)c2)cc1 (stereo partly drawn)
IC50 [1]: 21 nM
IC50 [2]: 60 nM

CCCCCCOC(C)C1=C(C)c2cc3nc(c4c5[nH]c(cc6[nH]c(cc1n2)c(C)c6CC)c(C)c5C(=O)C4)[C@@H](CCC(=O)O)[C@@H]3C (stereo partly drawn)
IC50 [9]: 68 nM
IC50 [10]: 43 nM

CCCCCCOC(C)C1=C(C)c2cc3nc(c4c5[nH]c(cc6[nH]c(cc1n2)c(C)c6CC)c(C)c5C(=O)C4)[C@@H](CCC(=O)NCCCCn1cc(-c2cccc(Nc4ncnc5cc(OCCOC)c(OCCOC)cc45)c2)nn1)[C@@H]3C (stereo partly drawn)
IC50 [1]: 20 nM
IC50 [2]: 18 nM

C[n+]1ccc(-c2c3nc(c(-c4cc[n+](C)cc4)c4ccc([nH]4)c(-c4cc[n+](C)cc4)c4nc(c(-c5ccc(OCc6cn(CCc7c8[nH]c9ccccc9c8cc[n+]7C)nn6)cc5)c5ccc2[nH]5)C=C4)C=C3)cc1
IC50 ([11]; a549): 60 nM
IC50 ([12]; a549): > 100000 nM

CCc1c(C)c2cc3nc(cc4nc(c5c6[nH]c(cc1[nH]2)c(C)c6C(=O)C5)[C@@H](CCC(=O)O)[C@@H]4C)C(C)=C3C(C)OCc1cccc(C#Cc2cccc(Nc3ncnc4cc(OCCOC)c(OCCOC)cc34)c2)c1 (stereo partly drawn)
IC50 [1]: 54 nM
IC50 [2]: 31 nM

C[n+]1ccc(-c2c3nc(c(-c4cc[n+](C)cc4)c4ccc([nH]4)c(-c4cc[n+](C)cc4)c4nc(c(-c5cc[n+](C)cc5)c5ccc2[nH]5)C=C4)C=C3)cc1
IC50 [11, 17]: 300 nM
IC50 ([12]; Homo sapiens, A549): > 100000 nM

CCc1c(C)c2cc3nc(cc4nc(c5c6[nH]c(cc1[nH]2)c(C)c6C(=O)C5)[C@@H](CCC(=O)OC)[C@@H]4C)C(C)=C3COCc1cccc(C#Cc2cccc(Nc3ncnc4cc(OCCOC)c(OCCOC)cc34)c2)c1
IC50 [1]: 76 nM
IC50 [2]: 23 nM

C1=Cc2nc1c(-c1ccncc1)c1ccc([nH]1)c(-c1ccncc1)c1nc(c(-c3ccc(OCc4cn(CCc5nccc6c5[nH]c5ccccc56)nn4)cc3)c3ccc([nH]3)c2-c2ccncc2)C=C1
IC50 [11, 17]: 43100 nM
IC50 ([12]; Homo sapiens, A549): > 100000 nM

C1=Cc2nc1c(-c1ccncc1)c1ccc([nH]1)c(-c1ccncc1)c1nc(c(-c3ccncc3)c3ccc([nH]3)c2-c2ccncc2)C=C1
IC50 [13]: > 100000 nM
IC50 [14]: 5800 nM

C1=Cc2nc1c(-c1ccccc1)c1ccc([nH]1)c(-c1ccccc1)c1nc(c(-c3ccc(OCc4cn(CC[n+]5c6ccccc6cc6[nH]c7ccccc7c65)nn4)cc3)c3ccc([nH]3)c2-c2ccccc2)C=C1
IC50 [15]: 2500 nM
IC50 [16]: 33600 nM
